Where two headings read alike, the source gives them in different places.
What was measured:
[1] = biological target: T1, CLK2 (Homo sapiens, UniProt P49760); assay: CLK2 kinase activity assay (Z-lyte, Ser/Thr 6 peptide); assay type: biochemical
T1 construct: purchased Thermo Fisher (Life Technologies), Z'-LYTE Kinase Assay Kits
Experimental: All reactions were performed in duplicate.

[2] = tested on: BT-549; assay: CellTiter-Glo Viability Assay, breast cancer; assay type: cell-based; conditions: Homo sapiens, BT-549, 96 h
[3] = tested on: CAMA1; assay: CellTiter-Glo Viability Assay, breast cancer; assay type: cell-based; conditions: Homo sapiens, CAMA-1, 96 h
[4] = tested on: DU4475; assay: CellTiter-Glo Viability Assay, breast cancer; assay type: cell-based; conditions: Homo sapiens, DU-4475, 96 h
[5] = tested on: HCC1599; assay: CellTiter-Glo Viability Assay, breast cancer; assay type: cell-based; conditions: Homo sapiens, HCC1599, 96 h
[6] = tested on: MCF7; assay: CellTiter-Glo Viability Assay, breast cancer; assay type: cell-based; conditions: Homo sapiens, MCF7, 96 h
[7] = tested on: MDA-MB-231-Luc; assay: CellTiter-Glo Viability Assay, breast cancer; assay type: cell-based; conditions: Homo sapiens, 96 h
[8] = tested on: T47D; assay: CellTiter-Glo Viability Assay, breast cancer; assay type: cell-based; conditions: Homo sapiens, 96 h
[9] = tested on: ZR-75-1; assay: CellTiter-Glo Viability Assay, breast cancer; assay type: cell-based; conditions: Homo sapiens, ZR-75-1, 96 h
[10] = tested on: all 50 cell lines; assay: CellTiter-Glo Viability Assay, average across all cell lines; assay type: cell-based; conditions: Homo sapiens, read-out: average EC50 for inhibition of cancer cell proliferation
Summary of the method: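 4-day proliferation, 37° C/5% CO2; 300-3,000 cells/well; compound in duplicate vs DMSO controls. Panel: breast, colorectal, heme/lymphoid, liver, lung, ovarian, pancreatic, prostate lines. Read-out: CellTiter-Glo ATP luminescence, EC50 from dose-response.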

[11] = tested on: colorectal cancer (6 cell lines); assay: CellTiter-Glo Viability Assay, colorectal cancer; assay type: cell-based; conditions: Homo sapiens
[12] = tested on: haematopoietic & lymphoid tumors (13 cell lines); assay: CellTiter-Glo Viability Assay, haematopoietic & lymphoid tumors; assay type: cell-based; conditions: Homo sapiens
[13] = tested on: liver cancer (3 cell lines); assay: CellTiter-Glo Viability Assay, liver cancer; assay type: cell-based; conditions: Homo sapiens
[14] = tested on: lung cancer (4 cell lines); assay: CellTiter-Glo Viability Assay, lung cancer; assay type: cell-based; conditions: Homo sapiens
[15] = tested on: ovarian cancer (4 cell lines); assay: CellTiter-Glo Viability Assay, ovarian cancer; assay type: cell-based; conditions: Homo sapiens
[16] = tested on: pancreatic cancer (8 cell lines); assay: CellTiter-Glo Viability Assay, pancreatic cancer; assay type: cell-based; conditions: Homo sapiens
[17] = tested on: prostate cancer (5 cell lines); assay: CellTiter-Glo Viability Assay, prostate cancer; assay type: cell-based; conditions: Homo sapiens
[18] = biological target: CLK3 (Homo sapiens, UniProt P49761); assay: CLK3 kinase activity assay (Z-lyte, Ser/Thr 18 peptide)
Chain of CLK3 (P49761 whole entry): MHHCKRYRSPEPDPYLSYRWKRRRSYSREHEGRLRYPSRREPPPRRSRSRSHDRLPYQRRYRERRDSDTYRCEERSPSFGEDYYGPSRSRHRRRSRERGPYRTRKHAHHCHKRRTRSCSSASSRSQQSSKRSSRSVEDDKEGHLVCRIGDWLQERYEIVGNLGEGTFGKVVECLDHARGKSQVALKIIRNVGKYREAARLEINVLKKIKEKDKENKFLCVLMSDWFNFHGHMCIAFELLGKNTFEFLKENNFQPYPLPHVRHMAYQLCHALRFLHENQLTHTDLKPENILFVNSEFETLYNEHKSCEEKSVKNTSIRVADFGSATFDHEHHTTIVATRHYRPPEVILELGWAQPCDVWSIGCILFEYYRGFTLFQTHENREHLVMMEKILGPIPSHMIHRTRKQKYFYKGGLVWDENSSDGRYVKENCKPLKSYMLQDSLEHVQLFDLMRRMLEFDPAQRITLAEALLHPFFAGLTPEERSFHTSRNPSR

T1 sequence (P49760 whole entry): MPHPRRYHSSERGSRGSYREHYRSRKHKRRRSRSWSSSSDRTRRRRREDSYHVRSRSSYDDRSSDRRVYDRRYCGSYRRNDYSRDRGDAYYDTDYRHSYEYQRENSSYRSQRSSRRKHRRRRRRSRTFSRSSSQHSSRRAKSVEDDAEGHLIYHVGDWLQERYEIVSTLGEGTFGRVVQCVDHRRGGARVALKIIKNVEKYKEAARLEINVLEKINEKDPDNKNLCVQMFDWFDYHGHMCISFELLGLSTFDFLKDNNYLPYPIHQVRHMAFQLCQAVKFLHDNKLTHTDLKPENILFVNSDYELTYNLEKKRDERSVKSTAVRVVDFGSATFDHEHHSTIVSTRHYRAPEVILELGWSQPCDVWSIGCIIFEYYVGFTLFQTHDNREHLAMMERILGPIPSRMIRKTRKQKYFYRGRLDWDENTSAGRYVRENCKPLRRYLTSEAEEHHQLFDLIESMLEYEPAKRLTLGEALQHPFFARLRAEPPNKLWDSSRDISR

Q: What does the source list for `CN1CCC(N(C)c2cc(C(=O)Nc3cc4cc(-c5cnn(C)c5)ccc4cn3)ccn2)CC1` [Compound 72]?
A: EC50 [1]: 1.3 nM; EC50 [2]: 186 nM; EC50 [3]: 294 nM; EC50 [4]: 121 nM; EC50 [5]: 147 nM; EC50 [6]: 670 nM; EC50 [7]: 230 nM; EC50 [8]: 506 nM; EC50 [9]: 284 nM; EC50 [10]: 206 nM; EC50 ([11]; DLD-1, read-out: Colorectal cancer, EC50 (μM) DLD-1): 0.157 µM; EC50 ([11]; HCT-116, read-out: Colorectal cancer, EC50 (μM) HCT116): 0.103 µM; EC50 ([11]; HT-29, read-out: Colorectal cancer, EC50 (μM) HT29): 0.257 µM; EC50 ([11]; SW48, read-out: Colorectal cancer, EC50 (μM) SW48): 0.057 µM; EC50 ([11]; SW480, read-out: Colorectal cancer, EC50 (μM) SW480): 0.129 µM; EC50 ([11]; SW-620, read-out: Colorectal cancer, EC50 (μM) SW620): 0.072 µM; EC50 ([12]; DND41, read-out: Haematopoietic & Lymphoid tumors, EC50 (μM) DND-41): 0.167 µM; EC50 ([12]; HL-60, read-out: Haematopoietic & Lymphoid tumors, EC50 (μM) HL-60): 0.453 µM; EC50 ([12]; JM1, read-out: Haematopoietic & Lymphoid tumors, EC50 (μM) JM1): 0.047 µM; EC50 ([12]; JeKo-1, read-out: Haematopoietic & Lymphoid tumors, EC50 (μM) JeKo-1): 0.054 µM; EC50 ([12]; Jurkat, read-out: Haematopoietic & Lymphoid tumors, EC50 (μM) JURKAT, Clone E6-1): 0.337 µM; EC50 ([12]; Kasumi 1, read-out: Haematopoietic & Lymphoid tumors, EC50 (μM) KASUMI-1): 0.13 µM; EC50 ([12]; MOLT-4, read-out: Haematopoietic & Lymphoid tumors, EC50 (μM) MOLT-4): 0.189 µM; EC50 ([12]; MV4-11, read-out: Haematopoietic & Lymphoid tumors, EC50 (μM) MV-4-11): 0.049 µM; EC50 ([12]; Rec1, read-out: Haematopoietic & Lymphoid tumors, EC50 (μM) REC-1): 0.049 µM; EC50 ([12]; SU-DHL-4, read-out: Haematopoietic & Lymphoid tumors, EC50 (μM) SUDHL4): 0.229 µM; EC50 ([12]; TF-1, read-out: Haematopoietic & Lymphoid tumors, EC50 (μM) TF-1): 0.314 µM; EC50 ([12]; Toledo, read-out: Haematopoietic & Lymphoid tumors, EC50 (μM) TOLEDO): 0.057 µM; EC50 ([12]; read-out: Haematopoietic & Lymphoid tumors, EC50 (μM) Loucy): 0.139 µM; EC50 ([13]; HepG2, read-out: Liver cancer, EC50 HEPG2): 136 nM; EC50 ([13]; PLC-PRF-5, read-out: Liver cancer, EC50 PLC/PRF/5): 386 nM; EC50 ([13]; SNU-398, read-out: Liver cancer, EC50 SNU398): 51 nM; EC50 ([14]; A-427, read-out: Lung cancer, EC50 (μM) A427): 0.136 µM; EC50 ([14]; HCC78, read-out: Lung cancer, EC50 (μM) HCC-78): 0.211 µM; EC50 ([14]; NCI-H460, read-out: Lung cancer, EC50 (μM) NCI-H460): 0.207 µM; EC50 ([14]; NCI-H522, read-out: Lung cancer, EC50 (μM) NCI-H522): 0.119 µM; EC50 ([15]; OV-90, read-out: Ovarian cancer, EC50 (μM) OV-90): 0.317 µM; EC50 ([15]; OVCAR-3, read-out: Ovarian cancer, EC50 (μM) OVCAR-3): 0.095 µM; EC50 ([15]; PA-1, read-out: Ovarian cancer, EC50 (μM) PA1): 0.154 µM; EC50 ([15]; TOV112D, read-out: Ovarian cancer, EC50 (μM) TOV-112D): 0.106 µM; EC50 ([16]; BXPC-3, read-out: Pancreatic cancer, EC50 BxPC3): 310 nM; EC50 ([16]; CAPAN-1, read-out: Pancreatic cancer, EC50 Capan1): 215 nM; EC50 ([16]; Capan-2, read-out: Pancreatic cancer, EC50 Capan2): 409 nM; EC50 ([16]; MIA PaCa-2, read-out: Pancreatic cancer, EC50 MIA PaCa-2): 88 nM; EC50 ([16]; PANC-1, read-out: Pancreatic cancer, EC50 PANC-1): 276 nM; EC50 ([16]; Panc 05.04, read-out: Pancreatic cancer, EC50 PANC 05.04): 226 nM; EC50 ([16]; read-out: Pancreatic cancer, EC50 UPAFII): 125 nM; EC50 ([17]; 22Rv1, read-out: Prostate cancer EC50 22Rv1): 142 nM; EC50 ([17]; DU-145, read-out: Prostate cancer EC50 Du-145): 232 nM; EC50 ([17]; LNCaP-Clone-FGC, read-out: Prostate cancer EC50 LNCap clone FGC): 257 nM; EC50 ([17]; PC-3, read-out: Prostate cancer EC50 PC3): 174 nM; EC50 ([17]; VCaP, read-out: Prostate cancer EC50 VCaP (Sigma)): 509 nM; EC50 [18]: 19.9 nM
